The test system of this assay is HEK293 cells. The assay is described as follows: Preliminary screening as DNA vectors, GFP transfection of HEK293 cells. Format: cell-based. The settings on record: amino lipid/DOPE liposome with 75 ng plasmid DNA (psin-EGFP-IRES-Puro); number of GFP-expressing cells divided by total nuclei (Hoechst). The procedure, abridged: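 Lipid + DOPE liposomes (NaOAc, pH 5.6) complexed w/ 75 ng psin-EGFP-IRES-Puro, 30 min RT; added to 3-5×10^4 HEK293/well, 37° C. Hoechst 0.2 μg/mL at 20-24 h, imaged after further 20-24 h. Efficiency = GFP+ cells / total nuclei.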
Consider `CCCCCCCCCCCCNc1nc(NCCCN2CCOCC2)nc(SCCCCCCCCC)n1` [S9N12 D8], for which the “Absolute DNA transfection efficiency in HEK293 cells” value (“Absolute DNA transfection efficiency” below) came out at 13.6%. The figure for `CCCCCCCCCCCCNc1nc(NCCCN2CCN(C)CC2)nc(SCCCCCCCCC)n1` [S9N12 D9] is 28.8%; for `CCCCCCCCCCCCNc1nc(NCC2CCN(C)CC2)nc(SCCCCCCCCC)n1` [S9N12 D10] it is 25.8%; for `CCCCCCCCCCCCCNc1nc(NCCN(C)C)nc(SCCCCCCCCC)n1` [S9N13 D1] it is 25.0%. In the case of `CCCCCCCCCCCCCNc1nc(NCCN2CCOCC2)nc(SCCCCCCCCC)n1` [S9N13 D2], the “Absolute DNA transfection efficiency” value was 11.1%. Then `CCCCCCCCCCCCCNc1nc(NCCN2CCCC2)nc(SCCCCCCCCC)n1` [S9N13 D3], with 31.6%.

For the molecule `CCCCCCCCCCCCCNc1nc(NCCN2CCCCC2)nc(SCCCCCCCCC)n1` [S9N13 D4], the “Absolute DNA transfection efficiency” value was found to be 6.7%. The figure for `CCCCCCCCCCCCCNc1nc(NCCN2CCN(C)CC2)nc(SCCCCCCCCC)n1` [S9N13 D5] is 27.9%; for `CCCCCCCCCCCCCNc1nc(NCCCN(C)C)nc(SCCCCCCCCC)n1` [S9N13 D6] it is 31.8%; for `CCCCCCCCCCCCCNc1nc(NCCN(CC)CC)nc(SCCCCCCCCC)n1` [S9N13 D7] it is 6.5%. Then `CCCCCCCCCCCCCNc1nc(NCCCN2CCOCC2)nc(SCCCCCCCCC)n1` [S9N13 D8], with 11.3%. Then `CCCCCCCCCCCCCNc1nc(NCCCN2CCN(C)CC2)nc(SCCCCCCCCC)n1` [S9N13 D9], with 19.9%; and `CCCCCCCCCCCCCNc1nc(NCC2CCN(C)CC2)nc(SCCCCCCCCC)n1` [S9N13 D10], with 29.4%; and `CCCCCCCCCCCCCCCNc1nc(NCCN(C)C)nc(SCCCCCCCCC)n1` [S9N15 D1], with 29.8%.

As to `CCCCCCCCCCCCCCCNc1nc(NCCN2CCOCC2)nc(SCCCCCCCCC)n1` [S9N15 D2], the “Absolute DNA transfection efficiency” value is recorded as 7.3%. Then `CCCCCCCCCCCCCCCNc1nc(NCCN2CCCC2)nc(SCCCCCCCCC)n1` [S9N15 D3], with 22.7%.

As to `CCCCCCCCCCCCCCCNc1nc(NCCN2CCCCC2)nc(SCCCCCCCCC)n1` [S9N15 D4], the “Absolute DNA transfection efficiency” value is given as 4.2%. Then `CCCCCCCCCCCCCCCNc1nc(NCCN2CCN(C)CC2)nc(SCCCCCCCCC)n1` [S9N15 D5], with 16.1%. On to `CCCCCCCCCCCCCCCNc1nc(NCCCN(C)C)nc(SCCCCCCCCC)n1` [S9N15 D6], for which the “Absolute DNA transfection efficiency” value is on record as 13.4%. The figure for `CCCCCCCCCCCCCCCNc1nc(NCCN(CC)CC)nc(SCCCCCCCCC)n1` [S9N15 D7] is 4.6%; for `CCCCCCCCCCCCCCCNc1nc(NCCCN2CCOCC2)nc(SCCCCCCCCC)n1` [S9N15 D8] it is 5.3%. The figure for `CCCCCCCCCCCCCCCNc1nc(NCCCN2CCN(C)CC2)nc(SCCCCCCCCC)n1` [S9N15 D9] is 10.9%; for `CCCCCCCCCCCCCCCNc1nc(NCC2CCN(C)CC2)nc(SCCCCCCCCC)n1` [S9N15 D10] it is 19.0%. Then `CCCCCCCCCCCCCCCCNc1nc(NCCN(C)C)nc(SCCCCCCCCC)n1` [S9N16 D1], with 19.2%. For `CCCCCCCCCCCCCCCCNc1nc(NCCN2CCOCC2)nc(SCCCCCCCCC)n1` [S9N16 D2], the “Absolute DNA transfection efficiency” value was found to be 23.5%.

Regarding `CCCCCCCCCCCCCCCCNc1nc(NCCN2CCCC2)nc(SCCCCCCCCC)n1` [S9N16 D3], the “Absolute DNA transfection efficiency” value came out at 31.3%. Turning to `CCCCCCCCCCCCCCCCNc1nc(NCCN2CCCCC2)nc(SCCCCCCCCC)n1` [S9N16 D4], the “Absolute DNA transfection efficiency” value was 8.1%.

For `CCCCCCCCCCCCCCCCNc1nc(NCCN2CCN(C)CC2)nc(SCCCCCCCCC)n1` [S9N16 D5], the “Absolute DNA transfection efficiency” value was 21.7%. Then `CCCCCCCCCCCCCCCCNc1nc(NCCCN(C)C)nc(SCCCCCCCCC)n1` [S9N16 D6], with 29.7%; and `CCCCCCCCCCCCCCCCNc1nc(NCCN(CC)CC)nc(SCCCCCCCCC)n1` [S9N16 D7], with 6.4%.

For the molecule `CCCCCCCCCCCCCCCCNc1nc(NCCCN2CCOCC2)nc(SCCCCCCCCC)n1` [S9N16 D8], the “Absolute DNA transfection efficiency” value was 18.4%.

On to `CCCCCCCCCCCCCCCCNc1nc(NCCCN2CCN(C)CC2)nc(SCCCCCCCCC)n1` [S9N16 D9], for which the “Absolute DNA transfection efficiency” value is reported as 20.3%.

Regarding `CCCCCCCCCCCCCCCCNc1nc(NCC2CCN(C)CC2)nc(SCCCCCCCCC)n1` [S9N16 D10], the “Absolute DNA transfection efficiency” value is reported as 21.8%. The figure for `CCCCCCCCCCCCCCCCCCNc1nc(NCCN(C)C)nc(SCCCCCCCCC)n1` [S9N18 D1] is 24.2%. The figure for `CCCCCCCCCCCCCCCCCCNc1nc(NCCN2CCOCC2)nc(SCCCCCCCCC)n1` [S9N18 D2] is 10.2%. The figure for `CCCCCCCCCCCCCCCCCCNc1nc(NCCN2CCCC2)nc(SCCCCCCCCC)n1` [S9N18 D3] is 33.8%. With `CCCCCCCCCCCCCCCCCCNc1nc(NCCN2CCCCC2)nc(SCCCCCCCCC)n1` [S9N18 D4], the “Absolute DNA transfection efficiency” value was 9.0%.

Take `CCCCCCCCCCCCCCCCCCNc1nc(NCCN2CCN(C)CC2)nc(SCCCCCCCCC)n1` [S9N18 D5]: the “Absolute DNA transfection efficiency” value was 22.9%. Then `CCCCCCCCCCCCCCCCCCNc1nc(NCCCN(C)C)nc(SCCCCCCCCC)n1` [S9N18 D6], with 47.5%. Then `CCCCCCCCCCCCCCCCCCNc1nc(NCCN(CC)CC)nc(SCCCCCCCCC)n1` [S9N18 D7], with 6.0%; and `CCCCCCCCCCCCCCCCCCNc1nc(NCCCN2CCOCC2)nc(SCCCCCCCCC)n1` [S9N18 D8], with 26.1%; and `CCCCCCCCCCCCCCCCCCNc1nc(NCCCN2CCN(C)CC2)nc(SCCCCCCCCC)n1` [S9N18 D9], with 15.8%. Then `CCCCCCCCCCCCCCCCCCNc1nc(NCC2CCN(C)CC2)nc(SCCCCCCCCC)n1` [S9N18 D10], with 11.2%; and `CCCCCCCCCCCCN(CCCCCCCCCCCC)c1nc(NCCN(C)C)nc(SCCCCCCCCC)n1` [S9^2N12 D1], with 0.3%; and `CCCCCCCCCCCCN(CCCCCCCCCCCC)c1nc(NCCN2CCOCC2)nc(SCCCCCCCCC)n1` [S9^2N12 D2], with 0.0%. Take `CCCCCCCCCCCCN(CCCCCCCCCCCC)c1nc(NCCN2CCCC2)nc(SCCCCCCCCC)n1` [S9^2N12 D3]: the “Absolute DNA transfection efficiency” value stood at 0.0%. The figure for `CCCCCCCCCCCCN(CCCCCCCCCCCC)c1nc(NCCN2CCCCC2)nc(SCCCCCCCCC)n1` [S9^2N12 D4] is 0.0%. Then `CCCCCCCCCCCCN(CCCCCCCCCCCC)c1nc(NCCN2CCN(C)CC2)nc(SCCCCCCCCC)n1` [S9^2N12 D5], with 0.3%; and `CCCCCCCCCCCCN(CCCCCCCCCCCC)c1nc(NCCCN(C)C)nc(SCCCCCCCCC)n1` [S9^2N12 D6], with 1.1%; and `CCCCCCCCCCCCN(CCCCCCCCCCCC)c1nc(NCCN(CC)CC)nc(SCCCCCCCCC)n1` [S9^2N12 D7], with 0.2%. Then `CCCCCCCCCCCCN(CCCCCCCCCCCC)c1nc(NCCCN2CCOCC2)nc(SCCCCCCCCC)n1` [S9^2N12 D8], with 0.0%; and `CCCCCCCCCCCCN(CCCCCCCCCCCC)c1nc(NCCCN2CCN(C)CC2)nc(SCCCCCCCCC)n1` [S9^2N12 D9], with 0.6%. As to `CCCCCCCCCCCCN(CCCCCCCCCCCC)c1nc(NCC2CCN(C)CC2)nc(SCCCCCCCCC)n1` [S9^2N12 D10], the “Absolute DNA transfection efficiency” value turned out to be 1.1%.

On to `CCCCCCCCCCSc1nc(NCCCCCC)nc(NCCN(C)C)n1` [S10N6 D1], for which the “Absolute DNA transfection efficiency” value was found to be 6.9%. Then `CCCCCCCCCCSc1nc(NCCCCCC)nc(NCCN2CCOCC2)n1` [S10N6 D2], with 0.5%. The figure for `CCCCCCCCCCSc1nc(NCCCCCC)nc(NCCN2CCCC2)n1` [S10N6 D3] is 7.3%.

Take `CCCCCCCCCCSc1nc(NCCCCCC)nc(NCCN2CCCCC2)n1` [S10N6 D4]: the “Absolute DNA transfection efficiency” value is reported as 5.7%. As for `CCCCCCCCCCSc1nc(NCCCCCC)nc(NCCN2CCN(C)CC2)n1` [S10N6 D5], the “Absolute DNA transfection efficiency” value is recorded as 7.0%. As for `CCCCCCCCCCSc1nc(NCCCCCC)nc(NCCCN(C)C)n1` [S10N6 D6], the “Absolute DNA transfection efficiency” value is reported as 3.5%. Consider `CCCCCCCCCCSc1nc(NCCCCCC)nc(NCCN(CC)CC)n1` [S10N6 D7], for which the “Absolute DNA transfection efficiency” value was found to be 6.6%. Then `CCCCCCCCCCSc1nc(NCCCCCC)nc(NCCCN2CCOCC2)n1` [S10N6 D8], with 0.6%; and `CCCCCCCCCCSc1nc(NCCCCCC)nc(NCCCN2CCN(C)CC2)n1` [S10N6 D9], with 5.5%; and `CCCCCCCCCCSc1nc(NCCCCCC)nc(NCC2CCN(C)CC2)n1` [S10N6 D10], with 0.9%. Then `CCCCCCCCCCSc1nc(NCCCCCCC)nc(NCCN(C)C)n1` [S10N7 D1], with 8.2%. Then `CCCCCCCCCCSc1nc(NCCCCCCC)nc(NCCN2CCOCC2)n1` [S10N7 D2], with 2.4%.

These data come from US20230123334A1, “AMINO LIPID COMPOUND, PREPARATION METHOD THEREFOR, AND APPLICATION THEREOF” (SHENZHEN SHENXIN BIOTECHNOLOGY CO., LTD., priority 2020, published 2023).
